In patent publication US11383008B2, “Surface-modified polymeric substrates grafted with a properties-imparting compound using clip chemistry” (Centre National de la Recherche Scientifique (CNRS), priority 2016, dated 2022):

Assay: Stability of MRI-visibility of grafted substrates after incubation in PBS
Type: physicochemical
Conditions: grafted on substrates (PP meshes, thread-like shape); two months in PBS medium (pH=7.4) at 37° C.; FIG. 9C
Protocol: Bruker 7T BIOSPEC 70/20, “mini-imaging” configuration (gradient BGA12 675 mt/m, resonator “bird cage” 35 mm). After a set of marker gradient echo sequences, a spin3D echo sequence was acquired (FOV 3*3*1 cm matrix 128*128*48, TR=3000 ms, TE=8 ms (TEeff=16), RF=8, acquisition time of 0:51) with an inversion delay of 1300 ms.
MGE 3D sequences with TR/TE 110/3 ms and angles of 75, 30 and 15° were acquired.
Stability of MRI-visibility for PP modified meshes after 2 months in saline phosphate buffer (pH 7.4, 37° C.) is shown in FIG. 9C.

## 4-Azidoaniline Modified Gd-Diethylene Triamine Pentaacetic Acid (Gd-DTPA-biN3) Complex
  MRI image after incubation (stability of MRI-visibility): does not show any image degradation
